These results are taken from article PMC11329504, “Identification of novel small molecule-based strategies of COL7A1 upregulation and readthrough activity for the treatment of recessive dystrophic epidermolysis bullosa” (Scientific Reports, 2024).

Holding throughout (type): cell-based, human
Assay [1] relates to total (truncated + full length) C7 in RDEB_L1 cells. The assay is described as follows: AlphaLISA quantification of total C7 in RDEB_L1 cells. The note with it: for EC50: Homo sapiens. The procedure: (§1) The AlphaLISA assay was developed in-house by using the biotin-conjugated rabbit polyclonal antibody anti-C7 (LSBio LS-298147) and conjugating the acceptor beads (PerkinElmer 6772001) to a monoclonal anti-Collagen type VII antibody produced in mouse, clone LH7.2 (Thermo MA5-13,432). Formulation of the mAb clone LH7.2 was exchanged to PBS and concentrated 5 × by using Amicon® Ultra-0.5 centrifugal filters up to 1 mg/ml. The conjugation procedure was carried out according to the protocol provided by PerkinElmer.
(§2) For compound treatment in RDEB patient-derived transformed keratinocytes, 5,000 cells were plated in 20 µL of supplemented KGM media containing 20 ng/mL TGFβ2 (SIGMA GF113) without GA-1000 in 384-well cell culture plates (Greiner 781098). The day after, 5 µL of test compounds prepared 5 × in supplemented KGM without GA-1000 were added over cells and incubated for 48 h at 37 °C and 5% CO2. For compound treatment in HEK293^R578X, 10,000 cells were plated in 20 μL of DMEM (High Glucose, 2 mM L-Glutamine, sodium pyruvate, and FBS 10%) in 384-well cell culture plates (Greiner 781,098,). The day after, 5 μL of test compounds prepared 5 × in DMEM complete medium were added over cells and incubated for 48 h at 37 °C and 5% CO2.
(§3) After the treatment process, 2.5 µL of RIPA buffer 10 x (Abcam ab156034) were added over the […] of cells for 20 min at room temperature to obtain a complete cell lysis. Then, 2 μL of sample (i.e., cell lysate with supernatant) were transferred to the AlphaLISA plate (PerkinElmer 6,059,340) containing […] of antibodies mixture ([…] of acceptor Beads-Ab and […] of biotin-rAb) prepared in AlphaLISA buffer 1 x (PerkinElmer AL00F). The reaction was incubated for 90 min at room temperature. Finally, 10 μL of […] of donor beads (PerkinElmer 6760002,) were added to the reaction under subdued light, mixed gently, and incubated for 3 h at room temperature. AlphaLISA signal was detected with an Envision microplate reader (Perkin Elmer) using the following setting: Filter: AlphaScreen, Excitation time: 180 ms, Integration time: 300 ms.
(§4) Statistical analyses were performed using GraphPad Prism v. 7.04 (La Jolla, California). Results are shown as mean ± SD of experimental replicates. Dose–response curves to assess compound treatment effect were plotted in a four-parameter logistic model. Relative EC50, representing the total drug concentration producing a 50% effect, was calculated in the four-parameter logistic equation. Comparisons of collagen protein and mRNA expression in different experimental conditions were made using ANOVA, followed by a post hoc test. statistical significance was considered with p values < 0.05.
In general terms: In Alpha technology, singlet oxygen from a donor bead excites a nearby acceptor bead.

Another assay has as its system RDEB_L1 cells. The assay is described as follows: RNAseq (HTPathwaySeq) transcriptomic profiling, GSEA. The note with it: 24 h; for modulation of GO terms related to NMD, readthrough, translation and unfolded protein response: 20 ng/mL TGFβ2, compound 7 and 8 at the highest concentrations tested of 100 and 300 µM. The protocol:
The […]®) analysis was conducted at […], Belgium) using samples provided by Almirall. A total of 376 cell lysate samples representing 4 biological replicates of 94 samples were provided to […] in four 96-well plates. On each 96-well plate, two empty wells were allocated to include […] reference samples. Samples from the same biological group were distributed over the different plates to not confound inter-plate variability with biological signal. […] The compounds were evaluated in RDEB_L1 cells in the presence of 20 ng/mL TGFβ2 to mimic RDEB physiology and in normal human keratinocytes with no TGFβ2 treatment. Cells were treated during 24 h. Controls for RDEB_L1 cells not treated with TGFβ2 and RDEB_L1 and NHK cells treated with DMSO in the absence of compounds were also included. The conditions of the assay were identical to those described for the Real-time quantitative RT-PCR (see above). For the […], over 460 M reads were generated for 376 samples of interest, resulting in about 1.22 M reads per sample on average. […] is based on a 3'-end library preparation method, and gene body read coverage is concentrated towards the 3'-end of the genes. For quality control, a selection of lysate samples was checked for gDNA contamination and RNA content using qPCR before library preparation. RNA samples were processed to generate RNA-sequencing libraries using […] procedure based on the QuantSeq (Lexogen) 3'-end library preparation workflow. The quality of a selection of samples was assessed with the 2100 Bioanalyzer instrument (Agilent). Libraries were quantified using qPCR and pooled for single-end sequencing on a NextSeq 500 (Illumina) according to […] standard operating procedure. Raw reads were mapped to the human genome (hg38) and gene expression was quantified based on the Ensembl transcriptome annotation (version 85) using […]. Raw counts were normalized using […]2 prior to differential gene expression analysis. For each cell line, samples were clustered based on log-transformed normalized counts using tSNE. A perplexity parameter of 35 and a maximum number of 1000 iterations were applied. Genes with more than 10 normalized counts in at least 3 samples were used as input. Analysis was run in R (v3.2) with a fixed seed. […] For each contrast, genes ranked by fold change were used as input. PCA was applied on the fold changes of each compound vs their associated vehicle using the 500 genes with the greatest variance. Arrows connect the different incremental dosages used on each compound to observe their differentiation patterns. Pathway enrichment and PCA were performed using R v.3.2. Pathway enrichment was analyzed with cluster profile package. The procedure followed for the cell treatments of RDEB-L1 and NHEK, was the same as that used in the RT-qPCR study. Cell lysis and sample preparation were conducted according to […] instructions: Plates of treated cells were centrifuged for 5 min at 600 g at 4 °C, and the medium was carefully removed to avoid disturbing the cells. Then, cells were washed in PBS, centrifuged and the PBS was removed again. […] After checking that cells were lysed, the samples were transferred to 96-well PCR plates, and then sealed and stored at -80 °C to be sent to […].

Assay [2] has as its system total (truncated + full length) C7 in RDEB_L5 cells. The assay is described as follows: AlphaLISA quantification of total C7 in RDEB_L5 cells. The note with it: for EC50: Homo sapiens, total C7 AlphaLISA, 48 h, 20 ng/mL TGFß2, relative EC50, mean ± SD, read-out: Increase in C7 levels EC50; for Increase in C7 levels Emax, % vs baseline: 20 ng/mL TGFß2. The protocol: as §1, §2, §3, §4

The mark [3] stands for this setting: RDEB_L1 cells, total C7 AlphaLISA, 48 h, 20 ng/mL TGFß2, mean ± SD, read-out: Increase in C7 levels EC50(rel).

Like-named read-outs stand apart in the source and are kept apart here.

Regarding `C#Cc1cc(-c2ccncc2)c(-c2cccc(F)c2)nc1N` [Compound 7], the EC50 in assay [1] (setting [3]) came out at 17 ± 6.6 µM; in assay [1] (Table 5 SAR, C7 AlphaLISA, 20 ng/mL TGFß2 (cell line not given; compound 7 values equal RDEB_L1 of Table 1), read-out: Increase in C7 levels EC50 (rel)), 17 ± 6.6 µM; in assay [2], 23 ± 11 µM. The “Increase in C7 levels Emax, % vs baseline” value (from here on “Increase … % vs baseline”) in assay [1] (RDEB_L1 cells, at 50 µM, 20 ng/mL TGFß2) is 412 ± 80 at 50 % vs baseline; in assay [1] (Table 5 SAR, at 50 μM, 20 ng/mL TGFß2) it was 412 ± 80 at 50 % vs baseline; in assay [2] (at 50 µM), 293 ± 58 at 50 % vs baseline. Besides, the “TGFβ signaling pathway signature (GSEA)” value in the assay on RDEB_L1 cells (20 ng/mL TGFβ2) was “did not show any effect”. Moreover, the “modulation of GO terms related to NMD, readthrough, translation and unfolded protein response” value with RDEB_L1 cells was “modulating genes specifically related to cytoplasmic translation and the ribosome”.
Take `NC(=O)Cn1ccc2ccc(-c3cnc(N)c(C(=O)NC4C5CC6CC4CC(O)(C6)C5)n3)cc21` (stereo not drawn) [Compound 1]: the EC50 in assay [1] (RDEB_L1 cells, no gentamicin (Fig. 4b), read-out: EC50 of compound 1, total C7 AlphaLISA) worked out at 4.56 µM; in assay [1] (setting [3]), 3 ± 1.8 µM; in assay [2], 4.7 ± 0.8 µM. The “decrease in the EC50 in the presence of increasing concentrations of gentamicin” value in assay [1] (RDEB_L1 cells) is listed as “threefold”. Besides, the “Increase … % vs baseline” value was found to be 3279 ± 1236 at 12 % vs baseline in assay [1] (RDEB_L1 cells, at 12 µM, 20 ng/mL TGFß2) and 1401 ± 384 at 12.5 % vs baseline in assay [2] (at 12.5 µM). Also, the “effect of the combination with gentamicin on total C7 levels” value in assay [1] (RDEB_L1 cells, both at concentrations in the range of their EC50, 48 h, 20 ng/mL TGFβ) is reported as “synergistic effect”. In addition, the “TGFβ signaling pathway signature (GSEA)” value in the assay with RDEB_L1 cells (20 ng/mL TGFβ2, at 10 µM) is “Downregulation of TGFβ signaling”. In the assay with RDEB_L1 cells, the “modulation of GO terms related to NMD, readthrough, translation and unfolded protein response” value is “Neither compound 1 nor chuangxinmycin nor 3-methyl-chuangxinmycin showed any impact on these pathways”.
Regarding `CNC(C)C1CCC(N)C(OC2C(N)CC(N)C(OC3OCC(C)(O)C(NC)C3O)C2O)O1` (stereo not drawn) [Gentamicin, reference compound], the EC50 was 1700 ± 480 µM in assay [1] (setting [3]); 420 to 1700 µM in assay [1] (in RDEB_L1 and RDEB_L5 cells, read-out: EC50 (range over two cell lines)); 420 ± 390 µM in assay [2]. Moreover, in assay [1] (RDEB_L1 and L5 cells), the “concentrations at which activity was detectable in the AlphaLISA assay” value was above 100 µM. The “Increase … % vs baseline” value in assay [1] (RDEB_L1 cells, 20 ng/mL TGFß2) amounted to 199 ± 112 at 4100 % vs baseline; in assay [2] (at 1600 µM) it was 41 ± 3.3 at 1600 % vs baseline. Besides, the “modulation of GO terms related to NMD, readthrough, translation and unfolded protein response” value in the assay with RDEB_L1 cells is “modulating genes related with the response to unfolded and topologically incorrect proteins”.

A word on the EC50: it is the concentration that produces a half-maximal response.
